In one experiment the target is T1, PstB2 (Saccharomyces cerevisiae, UniProt P53844).
T1 construct: made in house; host or cells: baculovirus-insect cell expression system
As to the kind of experiment: PstB2 control protein binding to solid phase POPG. More on the design: species or system yeast. The settings on record: PstB2 1 μg/ml. The source says:
FIG. 16. MD-2 preferentially binds POPG.

For the next experiment, the target named is T2, TLR1 (Mus musculus, UniProt Q9EPQ1).
T2 construct: endogenous in cells; host or cells: RAW 264.7
As to the kind of experiment: TLR agonist TNFα production in RAW 264.7 cells, TLR1. It is filed as cell-based. The settings on record: Pam3Cys, 24 h. How it is done: (§1) In this experiment, multiple TLRs were stimulated with defined TLR agonists for 24 h and the TNFα production was measured. In each case, the maximal stimulation by agonist is set at 100% and the antagonism by POPG is expressed as the relative % response. The Controls consist of no treatment, or treatment with POPG in the absence of agonist as indicated. The agonists for the TLRs consist of Pam3Cys for TLR1/2, Mycoplasma pneumoniae membranes as an agonist for TLR2, mycoplasma derived MALP2 as an agonist for TLR 2/6, double stranded RNA (poly IC) for TLR3, Gram-negative lipopolysaccharide for TLR4, and CpG rich DNA as an agonist for TLR9. The TLR4 panel also contains the antagonist polymyxin B (PB) for comparison with POPG.

The target in a further experiment is T3, TLR2 (Mus musculus, UniProt Q9QUN7).
T3 construct: endogenous in cells; host or cells: RAW 264.7
As to the kind of experiment: TLR agonist TNFα production in RAW 264.7 cells, TLR2. The settings on record: Mycoplasma pneumoniae membranes, 24 h. It is filed as cell-based. As for the experimental part: as §1

The next experiment has as its system TLR4. As to the kind of experiment: TLR agonist TNFα production in RAW 264.7 cells, TLR4. The following applies: lipopolysaccharide, 24 h. The format is cell-based. As for the experimental part:
as §1

The target in a further experiment is T4, TLR6 (Mus musculus, UniProt Q9EPW9).
T4 construct: endogenous in cells; host or cells: RAW 264.7
As to the kind of experiment: TLR agonist TNFα production in RAW 264.7 cells, TLR6. It is filed as cell-based. The following applies: MALP2, 24 h. As for the experimental part: as §1

The next experiment concerns TLR8. As to the kind of experiment: TLR agonist IL-8 production in primary human neutrophils, TLR8. It is filed as cell-based. The following applies: polyU, 5-24 h. How it is done:
In this experiment, multiple TLRs were stimulated with defined TLR agonists for 5-24 h as indicated, and the IL-8 production was measured. In each case the maximal stimulation by agonist is set at 100% and the antagonism by POPG is expressed as the relative % response. The Controls consist of no treatment, or treatment with POPG, in the absence of agonist as indicated. The agonists for the TLRs consist of Pam3Cys for TLR1/2, double stranded RNA (poly IC) for TLR3, Gram-negative lipopolysaccharide (LPS) for TLR4, and single stranded RNA (polyU) for TLR7/8.

The test system of experiment [1] is Respiratory Syncytial Virus (RSV). The experiment can be described thus: RSV-induced cytokine production in NHBE cells. It is filed as cell-based.
For experiment [2], the system named is RSV. The experiment can be described thus: RSV binding to Hep2 cells (FACScan). The format is cell-based, Respiratory Syncytial Virus (RSV). The following applies: Hep2, multiplicity 50, 37 C 10 min, lipid 200 ug/ml. How it is done: Suspensions of 3×10^5 Hep2 cells were treated with RSV at a multiplicity of 50, at 37 C for 10 min, in either the absence of lipid, or the presence of 200 ug/ml POPG, or POPC, as indicated. The cells were next shifted to 0 C and washed 3 times with PBS. The cells were then incubated with monoclonal mouse anti-RSV antibody for 1 h at 0 C in PBS containing 5% BSA. The unbound antibody was removed by washing the cells 3 times with PBS, 5% BSA. Next, the cells were incubated with phycoerythrin conjugated rabbit anti-mouse antibody in PBS, 5% BSA for 2 h. Following this incubation the cells were washed 3 times with PBS and fixed overnight with 1% buffered formalin. The fixed cell preparation was washed 3 times with PBS and subjected to FACScan analysis as shown in the left panel of FIG. 38. The summary of the mean fluorescence intensity (MFI) for all conditions is shown in the right panel of FIG. 38.

Experiment [3] relates to RSV. As to the kind of experiment: RSV plaque progression in Hep2 monolayers, lipid in agar overlay. It is filed as cell-based, Respiratory Syncytial Virus (RSV). The following applies: lipid in agar overlay 5 hours after virus, POPG 200-500 ug/ml, POPC 500 ug/ml, 5 days. How it is done: Monolayers of Hep2 cells were subjected to RSV infection at levels that produce ca 100 plaques per well in quantitative plaque assays. The virus was incubated with the cells for 5 hours prior to agar overlay. The agar overlays contained either no additions, or POPG (200-500 ug/ml) or POPC (500 ug/ml).
The effects of POPG upon plaque formation as shown in Panel a of FIG. 39 were quantified in 3 independent experiments and are presented in this figure. The left panel of FIG. 40 provides the numbers of definite, and minute indefinite plaques formed in the absence and presence of POPG (200-500 ug/ml) as indicated. The right panel of FIG. 40 provides the numbers of definite plaques observed in the absence and presence of either POPG or POPC (200-500 ug/ml) as indicated.

Experiment [4] relates to influenza-A virus H3N2. As to the kind of experiment: Influenza-A cytopathic effects and cell death in BEAS2B cells. It is filed as cell-based. The settings on record: 72 h, 200 ug/ml POPG. For orientation: Protection from cytopathic effect is a common read-out in antiviral testing.
Experiment [5] concerns influenza-A virus H3N2. It is filed as cell-based. The following applies: BEAS2B, multiplicities 1-10, 24, 48 and 72 h, 200 ug/ml POPG added 30 minutes prior.
The next experiment concerns the target sTLR4 (Homo sapiens, UniProt O00206). As to the kind of experiment: sTLR4 binding to solid phase POPG. The settings on record: sTLR4 1 μg/ml.
The mark [6] stands for this setting: RSV multiplicity 3, 48 h, lipid 200 ug/ml.

“Also recorded” adds a separate entry of the source.

Chain of sTLR4 (O00206 24-631): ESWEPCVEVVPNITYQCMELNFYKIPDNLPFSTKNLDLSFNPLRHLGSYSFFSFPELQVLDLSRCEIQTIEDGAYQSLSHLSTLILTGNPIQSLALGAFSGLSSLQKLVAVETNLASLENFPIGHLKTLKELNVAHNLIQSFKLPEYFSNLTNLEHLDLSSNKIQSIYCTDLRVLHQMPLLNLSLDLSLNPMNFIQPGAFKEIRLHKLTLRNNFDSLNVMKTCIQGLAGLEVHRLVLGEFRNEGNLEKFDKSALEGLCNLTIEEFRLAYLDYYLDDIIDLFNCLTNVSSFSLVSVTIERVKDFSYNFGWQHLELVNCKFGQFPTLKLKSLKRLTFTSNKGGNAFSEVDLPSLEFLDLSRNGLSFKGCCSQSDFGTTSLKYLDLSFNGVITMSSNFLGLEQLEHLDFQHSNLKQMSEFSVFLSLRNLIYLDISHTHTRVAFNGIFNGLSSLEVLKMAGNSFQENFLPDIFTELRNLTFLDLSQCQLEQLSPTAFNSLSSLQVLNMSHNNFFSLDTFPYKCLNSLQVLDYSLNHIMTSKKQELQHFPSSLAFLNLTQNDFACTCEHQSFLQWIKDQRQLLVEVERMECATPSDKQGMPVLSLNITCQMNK
T4 sequence (Q9EPW9 28-795): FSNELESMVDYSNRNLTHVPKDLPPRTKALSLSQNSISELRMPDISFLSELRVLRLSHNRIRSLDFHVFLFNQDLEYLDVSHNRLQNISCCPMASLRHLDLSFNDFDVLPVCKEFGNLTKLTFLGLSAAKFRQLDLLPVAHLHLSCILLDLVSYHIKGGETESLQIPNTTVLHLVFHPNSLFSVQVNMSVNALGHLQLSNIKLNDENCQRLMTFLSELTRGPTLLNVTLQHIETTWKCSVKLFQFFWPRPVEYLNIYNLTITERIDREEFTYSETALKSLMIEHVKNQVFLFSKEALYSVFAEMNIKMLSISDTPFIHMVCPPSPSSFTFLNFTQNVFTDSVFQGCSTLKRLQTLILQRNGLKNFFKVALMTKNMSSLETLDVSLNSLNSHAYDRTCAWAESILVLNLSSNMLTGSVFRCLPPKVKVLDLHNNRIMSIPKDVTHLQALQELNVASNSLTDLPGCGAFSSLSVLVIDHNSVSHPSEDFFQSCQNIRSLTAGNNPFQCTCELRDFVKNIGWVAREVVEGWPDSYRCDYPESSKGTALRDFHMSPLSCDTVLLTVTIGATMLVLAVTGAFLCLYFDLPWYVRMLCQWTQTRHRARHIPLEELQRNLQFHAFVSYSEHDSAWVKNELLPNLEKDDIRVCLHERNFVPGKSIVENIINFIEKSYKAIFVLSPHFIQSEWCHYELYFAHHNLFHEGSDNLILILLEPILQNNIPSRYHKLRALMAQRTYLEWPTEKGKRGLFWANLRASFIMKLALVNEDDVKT
T1 sequence (P53844 whole entry): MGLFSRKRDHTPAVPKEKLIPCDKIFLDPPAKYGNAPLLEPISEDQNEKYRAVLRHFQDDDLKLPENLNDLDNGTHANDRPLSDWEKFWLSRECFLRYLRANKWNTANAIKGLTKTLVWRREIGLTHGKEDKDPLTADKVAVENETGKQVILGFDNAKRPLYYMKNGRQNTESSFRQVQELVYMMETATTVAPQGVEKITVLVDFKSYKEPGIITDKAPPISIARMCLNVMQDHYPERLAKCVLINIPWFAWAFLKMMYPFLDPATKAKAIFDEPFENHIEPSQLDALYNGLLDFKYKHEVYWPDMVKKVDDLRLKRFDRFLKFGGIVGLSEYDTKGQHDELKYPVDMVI
T2 sequence (Q9EPQ1 26-795): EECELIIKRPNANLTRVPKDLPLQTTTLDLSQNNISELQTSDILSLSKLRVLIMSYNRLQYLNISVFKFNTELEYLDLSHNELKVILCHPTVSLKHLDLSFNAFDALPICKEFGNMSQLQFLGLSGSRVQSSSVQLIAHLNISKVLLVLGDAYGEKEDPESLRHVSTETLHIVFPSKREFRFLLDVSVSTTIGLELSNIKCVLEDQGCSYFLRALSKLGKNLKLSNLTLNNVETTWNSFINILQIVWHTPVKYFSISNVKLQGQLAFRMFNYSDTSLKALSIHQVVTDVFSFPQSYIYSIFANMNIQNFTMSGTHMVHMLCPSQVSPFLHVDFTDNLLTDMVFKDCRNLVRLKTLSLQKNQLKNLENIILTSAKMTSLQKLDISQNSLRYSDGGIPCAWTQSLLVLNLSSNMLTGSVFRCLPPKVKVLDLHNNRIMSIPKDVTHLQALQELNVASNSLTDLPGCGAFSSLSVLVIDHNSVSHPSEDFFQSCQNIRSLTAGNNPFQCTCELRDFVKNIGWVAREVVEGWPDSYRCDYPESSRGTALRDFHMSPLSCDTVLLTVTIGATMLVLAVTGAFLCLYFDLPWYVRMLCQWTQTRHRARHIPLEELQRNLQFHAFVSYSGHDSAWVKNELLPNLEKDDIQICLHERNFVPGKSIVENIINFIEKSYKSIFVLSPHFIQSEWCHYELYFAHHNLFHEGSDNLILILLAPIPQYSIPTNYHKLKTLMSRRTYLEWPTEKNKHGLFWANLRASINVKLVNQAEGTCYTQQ
T3 sequence (Q9QUN7 25-784): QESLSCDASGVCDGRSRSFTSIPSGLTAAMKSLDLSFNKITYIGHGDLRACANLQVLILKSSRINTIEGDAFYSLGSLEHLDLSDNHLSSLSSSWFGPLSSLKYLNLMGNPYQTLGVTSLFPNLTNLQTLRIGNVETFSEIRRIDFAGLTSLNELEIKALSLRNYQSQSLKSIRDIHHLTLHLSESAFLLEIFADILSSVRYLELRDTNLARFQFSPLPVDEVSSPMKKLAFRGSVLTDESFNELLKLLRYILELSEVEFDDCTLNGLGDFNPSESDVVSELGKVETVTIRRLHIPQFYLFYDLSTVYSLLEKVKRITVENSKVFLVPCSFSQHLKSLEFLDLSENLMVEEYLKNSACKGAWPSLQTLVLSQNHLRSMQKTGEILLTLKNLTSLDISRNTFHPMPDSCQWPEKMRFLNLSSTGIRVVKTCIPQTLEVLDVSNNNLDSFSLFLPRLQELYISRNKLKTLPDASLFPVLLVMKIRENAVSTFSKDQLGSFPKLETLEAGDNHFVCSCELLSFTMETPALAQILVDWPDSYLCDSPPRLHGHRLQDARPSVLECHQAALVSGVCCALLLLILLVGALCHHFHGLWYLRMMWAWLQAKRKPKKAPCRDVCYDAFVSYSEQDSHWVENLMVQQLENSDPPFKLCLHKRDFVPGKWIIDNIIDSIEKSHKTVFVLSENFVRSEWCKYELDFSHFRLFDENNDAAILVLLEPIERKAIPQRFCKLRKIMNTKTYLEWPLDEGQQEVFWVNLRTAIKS
Procedure for sTLR4: (A) POPG (1.25 nmole) was placed onto microtiter wells and the solvent evaporated. After blocking nonspecific binding with buffer A, MD-2, sTLR4 and PstB2 (1 μg/ml) in buffer A were added and incubated at 37° C. for 1 h. The binding of recombinant proteins to POPG was detected using anti-His antibody. […] The data shown are the means±S.E. from three separate experiments each with duplicate determinations.

For the molecule `CCCCCCCC/C=C\CCCCCCCC(=O)O[C@H](COC(=O)CCCCCCCCCCCCCCC)COP(=O)(O)OCC(O)CO` (some centres unmarked) [POPG, palmitoyl-oleoyl-phosphatidylglycerol], the “binding to PstB2” value on PstB2 is “not”. In addition, at TLR1, the “activity of TLR1 (TNFα production)” value is “inhibits”. The “activity of TLR2 (TNFα production)” value at TLR2 is recorded as “inhibits”. Moreover, the “activity of TLR4 (TNFα production)” value in the experiment with TLR4 is recorded as “inhibits”. In addition, the “activity of TLR6 (TNFα production)” value on TLR6 is listed as “inhibits”. Further, the “activity of TLR8 (IL-8 production)” value in the experiment with TLR8 was “inhibits”. For the same molecule, the “inflammatory cytokine production (IL-6, IL-8)” value in experiment [1] (RSV multiplicity 0.5-1, 48 h, 200 ug/ml) was “suppresses”. In addition, in [1] (setting [6]), the IL-6 production entry is “inhibits” and the IL-8 production entry is “inhibits”. Also, the “binding of RSV to epithelial cells” value in the experiment with RSV [2] was “blocks the binding”. The “progression of RSV infection (plaques)” value in the experiment on RSV [3] was “arrests the progression; also recorded: indefinite minute plaques”. Also, the “cell death induced by influenza A infection” value in the experiment on influenza-A virus H3N2 [4] is given as “prevents cell death”. For the same molecule, the “influenza-A induced IL-8 production” value with influenza-A virus H3N2 [5] is on record as “suppresses”. Moreover, on sTLR4, the “binding to sTLR4” value is “not”.

Source of the values: patent publication US10532066B2, “Surfactant lipids, compositions thereof, and uses thereof” (National Jewish Health, priority 2007, dated 2020).
